LC50, EC50 and ED50 data for four compounds are collected here from ChEMBL document CHEMBL1159290, “Longicin and goniothalamicinone: novel bioactive monotetrahydrofuran acetogenins from Asimina longifolia” (J Nat Prod, 1995).

Converted amounts (≈) assume the structure as drawn.

Data set [1] is described as follows: Toxicity to brine shrimp. The format is organism-based. The settings on record: artemia, in vivo.
The test system of data set [2] is MCF7. Briefly: Cytotoxicity against human MCF7 cells after 7 days by MTT assay. The following applies: MCF7, 168 h, read-out: ED50 (the source's name). The data set is classed as functional. A general note: Tetrazolium dyes change colour on reduction, which living cells bring about.
Data set [3] has as its system HT-29. Briefly: Cytotoxicity against human HT-29 cells after 7 days by MTT assay. The data set is classed as functional. The settings on record: for EC50: Homo sapiens, HT-29, 168 h, read-out: ED50 (the source's name).
Data set [4] has as its system A498. Put plainly: Cytotoxicity against human A498 cells after 7 days by MTT assay. The data set is classed as functional. The following applies: for EC50: Homo sapiens, A498, 168 h, read-out: ED50 (the source's name).
In data set [5] the test system is MIA PaCa-2. Briefly: Cytotoxicity against human MIAPaCa2 cells after 7 days by MTT assay. The format is functional. The settings on record: for EC50: Homo sapiens, MIA PaCa-2, 168 h, read-out: ED50 (the source's name).
The test system of data set [6] is A549. Put plainly: Cytotoxicity against human A549 cells after 7 days by MTT assay. The format is functional.
The test system of data set [7] is PC-3. Put plainly: Cytotoxicity against human PC3 cells after 7 days by MTT assay. The data set is classed as functional. The settings on record: PC-3, 168 h, read-out: ED50 (the source's name).

In general, LC50 refers to the concentration that kills 50% of the test population. A lower LC50 goes with a more lethal substance. Take `CCCCCCCCCCCCCC[C@H](O)[C@H]1CC[C@H]([C@H](O)CC[C@H](O)CCCCC[C@@H]2CC(CC(C)=O)C(=O)O2)O1` (mixture of isomers): in data set [1], the LC50 was found to be 0.46 µg/mL. Also, the EC50 in data set [2] worked out at 0.186 µg/mL; in data set [3], 0.235 µg/mL; in data set [4], 0.172 µg/mL; in data set [7] it was 0.201 µg/mL. In addition, the ED50 is listed as 2.37 ×10⁻⁴ ug/ml in data set [5] and 1.23 ×10⁻⁴ ug/ml in data set [6].

Consider `CCCCCCCCCCCCCC[C@@H](O)[C@H]1CC[C@H]([C@H](O)CC[C@H](O)CCCCC[C@@H]2CC(CC(C)=O)C(=O)O2)O1` (mixture of isomers), for which the LC50 in data set [1] amounted to 0.14 µg/mL. The EC50 in data set [2] was determined as 0.967 µg/mL; in data set [4], 0.291 µg/mL; in data set [5], 1.33 ng/mL; in data set [7] it was 0.137 µg/mL. The ED50 in data set [3] came to 4.05 ×10⁻⁴ ug/ml; in data set [6], 2.06 ×10⁻⁵ ug/ml.

In the case of `COc1cccc2c1C(=O)c1c(O)c3c(c(O)c1C2=O)C[C@@](O)(C(=O)CO)C[C@@H]3O[C@H]1C[C@H](N)[C@H](O)[C@H](C)O1` [DOXORUBICIN], the EC50 amounted to 0.329 µg/mL (≈ 605 nM) in data set [2]; 0.0116 µg/mL (≈ 21.3 nM) in data set [3]; 0.00197 µg/mL (≈ 3.62 nM) in data set [4]; 1.95 ng/mL (≈ 3.59 nM) in data set [5]; 3.41 ng/mL (≈ 6.27 nM) in data set [6] (Homo sapiens, A549, 168 h, read-out: ED50 (the source's name)).

For `CCCCCCCCCCCCCC[C@H](O)[C@H]1CC[C@H]([C@H](O)CC[C@H](O)CCCCC[C@@H](O)CC2=C[C@H](C)OC2=O)O1` [LONGICIN], the LC50 in data set [1] amounted to 0.11 µg/mL (≈ 184 nM). Moreover, the EC50 was above 1 µg/mL in data set [2] and 0.00426 µg/mL (≈ 7.14 nM) in data set [7]. Further, the ED50 in data set [3] was 2.4 ×10⁻⁵ ug/ml; in data set [4] it was 1.99 ×10⁻⁴ ug/ml; in data set [5], 1.25 ×10⁻⁹ ug/ml; in data set [6], 1.77 ×10⁻⁶ ug/ml.
